Measured values published in ChEMBL document CHEMBL1125863, “New aromatase inhibitors. Synthesis and biological activity of pyridyl-substituted tetralone derivatives” (J Med Chem, 1991).
Several values for one entry are separate records, joined by “and”; a condition that tells them apart may be missing. Equal values may be shown once.

Experiments:
Rattus norvegicus [1] = species on record: Rattus norvegicus; assay type: functional; conditions: dose 10 mg/kg
Rattus norvegicus [2] = species on record: Rattus norvegicus; assay type: functional; conditions: dose 10.1 mg/kg
Rattus norvegicus [3] = species on record: Rattus norvegicus; assay type: functional; conditions: dose 10.1 mg/kg; remark: listed apart in the source
Rattus norvegicus [4] = species on record: Rattus norvegicus; assay type: functional; conditions: dose 10.1 mg/kg; remark: listed apart in the source
Rattus norvegicus [5] = species on record: Rattus norvegicus; assay type: functional; conditions: dose 10.1 mg/kg; remark: listed apart in the source
Rattus norvegicus [6] = species on record: Rattus norvegicus; assay type: functional; conditions: dose 10.1 mg/kg; remark: listed apart in the source
Rattus norvegicus [7] = species on record: Rattus norvegicus; assay type: functional; conditions: dose 10.1 mg/kg; remark: listed apart in the source
Rattus norvegicus [8] = species on record: Rattus norvegicus; assay type: functional; conditions: dose 10.9 mg/kg
Rattus norvegicus [9] = species on record: Rattus norvegicus; assay type: functional; conditions: dose 10.9 mg/kg; remark: listed apart in the source
Rattus norvegicus [10] = species on record: Rattus norvegicus; assay type: functional; conditions: dose 10.9 mg/kg; remark: listed apart in the source
Rattus norvegicus [11] = species on record: Rattus norvegicus; assay type: functional; conditions: dose 10.9 mg/kg; remark: listed apart in the source
Rattus norvegicus [12] = species on record: Rattus norvegicus; assay type: functional; conditions: dose 10.9 mg/kg; remark: listed apart in the source
Rattus norvegicus [13] = species on record: Rattus norvegicus; assay type: functional; conditions: dose 10.9 mg/kg; remark: listed apart in the source
Rattus norvegicus [14] = species on record: Rattus norvegicus; assay type: functional; conditions: dose 10.9 mg/kg; remark: listed apart in the source
Rattus norvegicus [15] = species on record: Rattus norvegicus; assay type: functional; conditions: dose 20 mg/kg
Rattus norvegicus [16] = species on record: Rattus norvegicus; assay type: functional; conditions: dose 20 mg/kg; remark: listed apart in the source
Rattus norvegicus [17] = species on record: Rattus norvegicus; assay type: functional; conditions: dose 20 mg/kg; remark: listed apart in the source
Rattus norvegicus [18] = species on record: Rattus norvegicus; assay type: functional; conditions: dose 20 mg/kg; remark: listed apart in the source
Rattus norvegicus [19] = species on record: Rattus norvegicus; assay type: functional; conditions: dose 20 mg/kg; remark: listed apart in the source
Rattus norvegicus [20] = species on record: Rattus norvegicus; assay type: functional; conditions: dose 20 mg/kg; remark: listed apart in the source
Rattus norvegicus [21] = species on record: Rattus norvegicus; assay type: functional; conditions: dose 20 mg/kg; remark: listed apart in the source
Rattus norvegicus [22] = species on record: Rattus norvegicus; conditions: Heart right ventricle
Rattus norvegicus [23] = species on record: Rattus norvegicus; conditions: Ovarian vein
Rattus norvegicus [24] = species on record: Rattus norvegicus; conditions: Heart right ventricle; remark: listed apart in the source
Rattus norvegicus [25] = species on record: Rattus norvegicus; conditions: Heart right ventricle; remark: listed apart in the source
Aromatase = target: T1, Aromatase (Rattus norvegicus, UniProt P22443)
T1 sequence (P22443 whole entry): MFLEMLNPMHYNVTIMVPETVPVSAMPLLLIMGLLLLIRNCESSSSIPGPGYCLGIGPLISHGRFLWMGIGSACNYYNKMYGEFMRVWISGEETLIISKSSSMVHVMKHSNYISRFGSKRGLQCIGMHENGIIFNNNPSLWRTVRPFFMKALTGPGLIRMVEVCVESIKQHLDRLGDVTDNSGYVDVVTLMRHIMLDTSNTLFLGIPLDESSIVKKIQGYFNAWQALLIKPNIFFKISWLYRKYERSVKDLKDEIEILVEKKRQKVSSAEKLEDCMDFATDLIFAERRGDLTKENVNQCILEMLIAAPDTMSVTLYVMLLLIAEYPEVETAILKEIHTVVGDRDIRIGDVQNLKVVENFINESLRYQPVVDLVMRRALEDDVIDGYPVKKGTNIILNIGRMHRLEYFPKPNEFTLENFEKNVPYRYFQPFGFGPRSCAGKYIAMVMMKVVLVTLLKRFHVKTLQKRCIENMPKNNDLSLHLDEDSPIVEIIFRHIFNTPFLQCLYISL

Rattus norvegicus [26] = species on record: Rattus norvegicus; conditions: Heart right ventricle; remark: listed apart in the source
Rattus norvegicus [27] = species on record: Rattus norvegicus; conditions: Heart right ventricle; remark: listed apart in the source
Rattus norvegicus [28] = species on record: Rattus norvegicus; conditions: Heart right ventricle; remark: listed apart in the source
Rattus norvegicus [29] = species on record: Rattus norvegicus; conditions: Heart right ventricle; remark: listed apart in the source
Rattus norvegicus [30] = species on record: Rattus norvegicus; conditions: Heart right ventricle; remark: listed apart in the source
Rattus norvegicus [31] = species on record: Rattus norvegicus; conditions: Heart right ventricle; remark: listed apart in the source
Rattus norvegicus [32] = species on record: Rattus norvegicus; conditions: Heart right ventricle; remark: listed apart in the source
Rattus norvegicus [33] = species on record: Rattus norvegicus; conditions: Heart right ventricle; remark: listed apart in the source
Rattus norvegicus [34] = species on record: Rattus norvegicus; assay type: functional; conditions: dose 10 mg/kg; remark: listed apart in the source
Rattus norvegicus [35] = species on record: Rattus norvegicus; assay type: functional; conditions: dose 10 mg/kg; remark: listed apart in the source
Rattus norvegicus [36] = species on record: Rattus norvegicus; assay type: functional; conditions: dose 10 mg/kg; remark: listed apart in the source
Rattus norvegicus [37] = species on record: Rattus norvegicus; assay type: functional; conditions: dose 10 mg/kg; remark: listed apart in the source
Rattus norvegicus [38] = species on record: Rattus norvegicus; assay type: functional; conditions: dose 10 mg/kg; remark: listed apart in the source
Rattus norvegicus [39] = species on record: Rattus norvegicus; assay type: functional; conditions: dose 10 mg/kg; remark: listed apart in the source
Rattus norvegicus [40] = species on record: Rattus norvegicus; conditions: Heart right ventricle; remark: listed apart in the source
Rattus norvegicus [41] = species on record: Rattus norvegicus; conditions: Heart right ventricle; remark: listed apart in the source
Rattus norvegicus [42] = species on record: Rattus norvegicus; assay type: functional; conditions: dose 10.2 mg/kg
Rattus norvegicus [43] = species on record: Rattus norvegicus; assay type: functional; conditions: dose 10.2 mg/kg; remark: listed apart in the source
Rattus norvegicus [44] = species on record: Rattus norvegicus; assay type: functional; conditions: dose 10.2 mg/kg; remark: listed apart in the source
Rattus norvegicus [45] = species on record: Rattus norvegicus; assay type: functional; conditions: dose 10.2 mg/kg; remark: listed apart in the source
Rattus norvegicus [46] = species on record: Rattus norvegicus; assay type: functional; conditions: dose 10.2 mg/kg; remark: listed apart in the source
Rattus norvegicus [47] = species on record: Rattus norvegicus; assay type: functional; conditions: dose 10.2 mg/kg; remark: listed apart in the source
Rattus norvegicus [48] = species on record: Rattus norvegicus; assay type: functional; conditions: dose 10.2 mg/kg; remark: listed apart in the source
Rattus norvegicus [49] = species on record: Rattus norvegicus; assay type: functional; conditions: dose 11.4 mg/kg
Rattus norvegicus [50] = species on record: Rattus norvegicus; assay type: functional; conditions: dose 11.4 mg/kg; remark: listed apart in the source
Rattus norvegicus [51] = species on record: Rattus norvegicus; assay type: functional; conditions: dose 11.4 mg/kg; remark: listed apart in the source
Rattus norvegicus [52] = species on record: Rattus norvegicus; assay type: functional; conditions: dose 11.4 mg/kg; remark: listed apart in the source
Rattus norvegicus [53] = species on record: Rattus norvegicus; assay type: functional
Rattus norvegicus [54] = species on record: Rattus norvegicus; assay type: functional; conditions: dose 11.4 mg/kg; remark: listed apart in the source
Rattus norvegicus [55] = species on record: Rattus norvegicus; assay type: functional; conditions: dose 11.4 mg/kg; remark: listed apart in the source
Rattus norvegicus [56] = species on record: Rattus norvegicus; assay type: functional; conditions: dose 11.5 mg/kg
Rattus norvegicus [57] = species on record: Rattus norvegicus; assay type: functional; conditions: dose 11.5 mg/kg; remark: listed apart in the source
Rattus norvegicus [58] = species on record: Rattus norvegicus; assay type: functional; conditions: dose 11.5 mg/kg; remark: listed apart in the source
Rattus norvegicus [59] = species on record: Rattus norvegicus; assay type: functional; conditions: dose 11.5 mg/kg; remark: listed apart in the source
Rattus norvegicus [60] = species on record: Rattus norvegicus; assay type: functional; conditions: dose 11.5 mg/kg; remark: listed apart in the source
Rattus norvegicus [61] = species on record: Rattus norvegicus; assay type: functional; conditions: dose 11.5 mg/kg; remark: listed apart in the source
Rattus norvegicus [62] = species on record: Rattus norvegicus; assay type: functional; conditions: dose 11.5 mg/kg; remark: listed apart in the source

CCC(=O)O[C@H]1CC[C@H]2[C@@H]3CCC4=CC(=O)CC[C@]4(C)[C@H]3CC[C@]12C.O=C1/C(=C/c2ccncc2)CCc2ccccc21
Change of tumor area (Rattus norvegicus [1]): 2% | Tumors with CR (Rattus norvegicus [2]): 20% | Tumors with CR (Rattus norvegicus [3]): 20% | Tumors with CR (Rattus norvegicus [4]): 20% | Tumors with CR (Rattus norvegicus [5]): 40% | No. of tumors (Rattus norvegicus [6]): 30 | No. of tumors (Rattus norvegicus [7]): 6

CCC(=O)O[C@H]1CC[C@H]2[C@@H]3CCC4=CC(=O)CC[C@]4(C)[C@H]3CC[C@]12C.O=C1c2cccc(O)c2CCC1Cc1ccncc1
Tumors with CR (Rattus norvegicus [8]): 45% | Tumors with CR (Rattus norvegicus [9]): 21% | Change of tumor area (Rattus norvegicus [10]): 61% | No. of tumors (Rattus norvegicus [11]): 3 | Tumors with CR (Rattus norvegicus [12]): 6% | No. of tumors (Rattus norvegicus [13]): 33 | Tumors with CR (Rattus norvegicus [14]): 27%

CCC(=O)O[C@H]1CC[C@H]2[C@@H]3CCC4=CC(=O)CC[C@]4(C)[C@H]3CC[C@]12C [TESTOSTERONE PROPIONATE]
Tumors with CR (Rattus norvegicus [15]): 19% | Tumors with CR (Rattus norvegicus [16]): 25% | No. of tumors (Rattus norvegicus [17]): 12 | Tumors with CR (Rattus norvegicus [18]): 36% | No. of tumors (Rattus norvegicus [19]): 36 | Tumors with CR (Rattus norvegicus [20]): 19% | Change of tumor area (Rattus norvegicus [21]): 141%

COc1cccc2c1CCC(Cc1ccncc1)C2=O (configuration not stated)
Plasma-E2 concentration (Rattus norvegicus [22]): 851 pg/mL | Plasma-E2 concentration (Rattus norvegicus [23]): 3950 pg/mL | Plasma-E2 concentration (Rattus norvegicus [24]): 894 pg/mL | Plasma-E2 concentration (Rattus norvegicus [25]): 990 pg/mL | IC50 (Aromatase): 8 µM | Plasma-E2 concentration (Rattus norvegicus [26]): 1460 pg/mL and 902 pg/mL | Plasma-E2 concentration (Rattus norvegicus [27]): 576 pg/mL | Plasma-E2 concentration (Rattus norvegicus [28]): 639 pg/mL | Plasma-E2 concentration (Rattus norvegicus [29]): 882 pg/mL | Plasma-E2 concentration (Rattus norvegicus [30]): 1250 pg/mL | Plasma-E2 concentration (Rattus norvegicus [31]): 542 pg/mL | Plasma-E2 concentration (Rattus norvegicus [32]): 1040 pg/mL | Plasma-E2 concentration (Rattus norvegicus [33]): 458 pg/mL

O=C1c2cccc(O)c2CCC1Cc1ccncc1 (stereo in doubt; 12)
Plasma-E2 concentration (Rattus norvegicus [23]): 3700 pg/mL | IC50 (Aromatase): 2 µM | Plasma-E2 concentration (Rattus norvegicus [31]): 472 pg/mL

CCC(=O)O[C@H]1CC[C@H]2[C@@H]3CCC4=CC(=O)CC[C@]4(C)[C@H]3CC[C@]12C.CCC1(c2ccc(N)cc2)CCC(=O)NC1=O
Change of tumor area (Rattus norvegicus [1]): 4% | Tumors with CR (Rattus norvegicus [34]): 23% | Tumors with CR (Rattus norvegicus [35]): 6% | No. of tumors (Rattus norvegicus [36]): 7 | No. of tumors (Rattus norvegicus [37]): 35 | Tumors with CR (Rattus norvegicus [38]): 17% | Tumors with CR (Rattus norvegicus [39]): 54%

O=C1c2ccccc2CCC1Cc1ccncc1 (configuration not stated)
Plasma-E2 concentration (Rattus norvegicus [23]): 3700 pg/mL | Plasma-E2 concentration (Rattus norvegicus [40]): 717 pg/mL

CCC1(c2ccc(N)cc2)CCC(=O)NC1=O (configuration not stated)
Plasma-E2 concentration (Rattus norvegicus [41]): 164 pg/mL | Plasma-E2 concentration (Rattus norvegicus [26]): 843 pg/mL and 500 pg/mL | Plasma-E2 concentration (Rattus norvegicus [27]): 272 pg/mL

CCC(=O)O[C@H]1CC[C@H]2[C@@H]3CCC4=CC(=O)CC[C@]4(C)[C@H]3CC[C@]12C.O=C1c2ccccc2CCC1Cc1ccncc1
Change of tumor area (Rattus norvegicus [42]): 41% | Tumors with CR (Rattus norvegicus [43]): 10% | No. of tumors (Rattus norvegicus [44]): 31 | Tumors with CR (Rattus norvegicus [45]): 45% | No. of tumors (Rattus norvegicus [46]): 8 | Tumors with CR (Rattus norvegicus [47]): 32% | Tumors with CR (Rattus norvegicus [48]): 13%

O=C1/C(=C/c2ccncc2)CCc2c(O)cccc21
Plasma-E2 concentration (Rattus norvegicus [23]): 4040 pg/mL | Plasma-E2 concentration (Rattus norvegicus [31]): 524 pg/mL

CCC(=O)O[C@H]1CC[C@H]2[C@@H]3CCC4=CC(=O)CC[C@]4(C)[C@H]3CC[C@]12C.COc1cccc2c1CC/C(=C\c1ccncc1)C2=O
Tumors with CR (Rattus norvegicus [49]): 50% | No. of tumors (Rattus norvegicus [50]): 9 | Tumors with CR (Rattus norvegicus [51]): 29% | Tumors with CR (Rattus norvegicus [52]): 11% | Tumors with CR (Rattus norvegicus [53]): 11% | No. of tumors (Rattus norvegicus [54]): 28 | Change of tumor area (Rattus norvegicus [55]): 115%

CCC(=O)O[C@H]1CC[C@H]2[C@@H]3CCC4=CC(=O)CC[C@]4(C)[C@H]3CC[C@]12C.COc1cccc2c1CCC(Cc1ccncc1)C2=O
Tumors with CR (Rattus norvegicus [56]): 29% | Tumors with CR (Rattus norvegicus [57]): 35% | Tumors with CR (Rattus norvegicus [58]): 12% | No. of tumors (Rattus norvegicus [59]): 34 | No. of tumors (Rattus norvegicus [60]): 11 | Change of tumor area (Rattus norvegicus [61]): 50% | Tumors with CR (Rattus norvegicus [62]): 24%
